Earlier results, collected in US20070244041A1, “Peptide Yy Analogues” (Reoscience A/S, priority 2004, published 2007).
No end group written: not given here.

Tests used:
vagal motor neurons = details: applied onto vagal motor neurons

selectivity for Y2 over Y1 receptors (Y2 over Y1 receptors) | Substance | vagal motor neurons activated (vagal motor neurons) | vagal motor neurons with inhibited firing rate (vagal motor neurons)
high selectivity | NPY3-36: truncated neuropeptide Y with high selectivity for Y2 over Y1 receptors | – | –
– | PYY13-36: truncated PYY, a Y2 selective agonist (SPEELNRYYASLRHYLNLVTRQRY; ends and bridges not checked; UniProt P10082 41-64, looked up, fragment) | approximately 5% | approximately 50%
